Measurements: patent US6306876A, “4-[aryl(8-azabicyclo[3.2.1]octan-3-yl)]aminobenzoic acid derivatives” (priority 2000, dated 2001)

Target: T1, delta-opioid receptor (Rattus norvegicus, UniProt P33533)
T1 construct: from tissue; host or cells: forebrain particulate (membrane) preparation of male Wistar rats (animals from Charles River, Kingston, N.Y.)
Assay: Rat Brain Delta-Opioid Receptor Binding Assay
Set-up: species or system rat (Wistar)
Conditions: rat forebrain homogenate, [3H]DPDPE, 25° C., pH 7.4; read-out: Delta K

T1 sequence (P33533 whole entry): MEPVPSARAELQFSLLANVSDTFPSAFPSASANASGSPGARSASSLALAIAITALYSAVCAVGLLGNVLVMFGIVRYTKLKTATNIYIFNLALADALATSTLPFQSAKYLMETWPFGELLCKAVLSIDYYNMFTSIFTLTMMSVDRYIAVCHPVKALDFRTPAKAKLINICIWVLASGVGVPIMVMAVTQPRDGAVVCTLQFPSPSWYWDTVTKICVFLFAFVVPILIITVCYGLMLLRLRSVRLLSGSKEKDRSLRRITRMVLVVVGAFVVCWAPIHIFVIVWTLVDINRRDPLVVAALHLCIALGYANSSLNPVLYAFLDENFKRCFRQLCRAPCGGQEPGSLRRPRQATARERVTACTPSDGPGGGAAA

**Q.** CN1C2CCC1CC(N(c1ccccc1)c1cccc(C(=O)OC(C)(C)C)c1)C2 (stereo not drawn) [Example 38, 1,1-Dimethylethyl 3-[phenyl(endo-8-methyl-8-azabicyclo[3.2.1]octan-3-yl)amino]benzoate] was tested. Which Ki did it give?
**A.** Its Ki is 459 nM.
